Holding throughout (experiment): NCI anticancer screen, dose series, 48 h
Experiment [1] has as its system MOLT-4 leukemia.
Experiment [2] deals with OVCAR-8 ovarian.
Experiment [3] concerns MDA-MB-231 breast.
For experiment [4], the system named is U251 CNS.
Experiment [5] concerns A498 renal.
Experiment [6] concerns SK-MEL-5 melanoma.
Experiment [7] has as its system RPMI-8226 leukemia.
Experiment [8] deals with HOP-62 NSCLC.
Experiment [9] relates to MDA-N.
For experiment [10], the system named is NCI-H226 lung.
The subject of experiment [11] is ACHN renal.
For experiment [12], the system named is SR leukemia.
Experiment [13] relates to HCC-2998 colon.
Experiment [14] relates to DU-145 prostate.
Experiment [15] relates to SN12C renal.
The subject of experiment [16] is MALME-3M melanoma.
Experiment [17] relates to HS 578T breast.
In experiment [18] the test system is HCT-15 colon.
In experiment [19] the test system is A549 NSCLC.

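Following 48 hours of exposure in 96-well plates, responses at five concentrations were used to interpolate endpoints linearly. TGI marks complete inhibition of growth.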

Turning to `CC(=O)N(C(=O)CC(=O)NNCc1ccccc1Cl)c1ccc(Cl)cc1`, the TGI in experiment [1], in [2], in experiment [3], in experiment [4], in experiment [5] and in [6] was above 10 µM throughout. Also, the TGI in experiment [7], in [8], in experiment [9], in [10], in experiment [11] and in experiment [12] was above 10 µM throughout. Further, the TGI in experiment [13], in experiment [14], in [15], in experiment [16], in [17] and in [18] was above 10 µM each time. In [19], this molecule displayed a TGI above 10 µM.
In the case of `CC(/C=C/C=C\C=C\C=C(/C)C(=O)NC(C)CO)=C\C(C)C(O)/C(C)=C/C(C)CCc1ccccc1` (stereo unspecified), the TGI in experiment [1] was determined as 55.6 µM; in experiment [2] it was 25 µM; in experiment [3], 45.2 µM; in experiment [4], 37.9 µM; in experiment [5] it was 26.7 µM; in experiment [6], 15.5 µM. For the same molecule, the TGI in [7] is above 78.6 µM; in [8], 37.5 µM; in experiment [9] it was 31.5 µM; in [10] it was 26.5 µM; in experiment [11] it was 21.9 µM; in experiment [12], above 59 µM. Besides, the TGI was 26.7 µM in experiment [13]; above 100 µM in [14]; 26.4 µM in experiment [15]; 22.3 µM in experiment [16]; 52.8 µM in experiment [17]; 31.1 µM in experiment [18]. This molecule yielded a TGI in experiment [19] above 100 µM.
As for `O=C(O)c1[nH]c(=O)[nH]c(=O)c1CN1CCCCC1`, the TGI in experiment [2], in experiment [3], in experiment [4], in experiment [5], in experiment [6] and in [7] was above 100 µM each time. In addition, the TGI in experiment [8], in [9], in experiment [10], in experiment [11], in experiment [12] and in experiment [13] was above 100 µM in each case. In addition, the TGI in experiment [14], in experiment [15], in experiment [16], in experiment [17], in experiment [18] and in experiment [19] was above 100 µM in each case.
For `C=C1CC(COc2ccc3c(C)c(Cl)c(=O)oc3c2)(c2ccccc2)OC1=O` (stereo unspecified), the TGI was determined as 5.61 µM in experiment [2]; 14.4 µM in experiment [3]; 20.4 µM in experiment [4]; 25.7 µM in experiment [5]; 3.63 µM in experiment [6]; 1.42 µM in experiment [7]. The TGI in [8] was 20.3 µM; in experiment [9], 5.48 µM; in [10], 8.01 µM; in [11], 6.04 µM; in experiment [12], above 21.5 µM; in experiment [13], 3.59 µM. In addition, the TGI in experiment [14] was determined as 9.66 µM; in experiment [15], 20.1 µM; in experiment [16], 3.75 µM; in experiment [17] it was 17.5 µM; in experiment [18], 5.13 µM; in experiment [19], 27.9 µM.
For `CCCCCCCCCCCCCCCCOP(=O)(O)OP(=O)(O)OCC1OC(n2cnc3c(N)ncnc32)C(O)C1O` (stereo unspecified), the TGI in experiment [1], in experiment [2], in [3], in experiment [4], in [5] and in experiment [6] was above 100 µM in each case. For the same molecule, the TGI in [8] was above 100 µM; in experiment [9] it was above 100 µM; in experiment [10], above 100 µM; in experiment [11], above 100 µM; in [12] it was 78.3 µM; in experiment [13], above 100 µM. In addition, the TGI in experiment [14], in experiment [15], in [16], in experiment [17], in experiment [18] and in [19] was above 100 µM in each case.
As for `c1ccc(C2(c3ccccc3)S/C(=C3/SC(c4ccccc4)(c4ccccc4)c4ccccc43)c3ccccc32)cc1`, the TGI in experiment [1], in experiment [2], in [3], in experiment [4], in experiment [5] and in [6] was above 100 µM throughout. Moreover, the TGI in experiment [8], in [9], in experiment [10], in [11], in [12] and in experiment [13] was above 100 µM throughout. Besides, the TGI in experiment [14], in experiment [15], in experiment [16], in experiment [17], in [18] and in [19] was above 100 µM each time.
Consider `Cc1c2ccccc2c(CSC(=N)N)c2ccccc12`, for which the TGI worked out at 0.127 µM in experiment [1]; 6.43 µM in [2]; 1.03 µM in [3]; 0.818 µM in experiment [4]; 0.4 µM in experiment [5]; 0.331 µM in experiment [6]. The TGI in experiment [7] stood at 0.558 µM; in experiment [8] it was 1.99 µM; in experiment [9], 0.457 µM; in [10], 0.679 µM; in experiment [11] it was 0.303 µM; in experiment [12], 0.0673 µM. Besides, the TGI in experiment [14] worked out at 0.406 µM; in [15], 0.903 µM; in experiment [16], 0.356 µM; in [17] it was 0.475 µM; in [18] it was 1.96 µM; in [19] it was 1.62 µM.
As for `CSc1ccc(/C=C/C(=O)c2nc3ccccc3[nH]2)cc1`, the TGI in experiment [1] is 18.6 µM; in [2], above 100 µM; in [3], 24.3 µM; in experiment [5] it was 41.2 µM; in experiment [6] it was 57.8 µM; in experiment [7] it was 13.4 µM. Besides, the TGI was 82.1 µM in experiment [8]; above 100 µM in [9]; 56.9 µM in experiment [10]; 43.2 µM in experiment [11]; 6.56 µM in experiment [12]; 23.7 µM in experiment [13]. For the same molecule, the TGI is 13.2 µM in experiment [14]; above 100 µM in experiment [15]; above 100 µM in experiment [16]; above 100 µM in experiment [17]; 40.6 µM in experiment [18]; 98.6 µM in experiment [19].
